Patent US20190002452A1 (GUANGZHOU HENOVCOM BIOSCIENCE CO., LTD, priority 2016, published 2019)

Target: T1, human farnesol receptor protein hFXR (Homo sapiens, UniProt Q96RI1)
T1 construct: hexahistidine (His6)
T1 sequence (Q96RI1 1-486): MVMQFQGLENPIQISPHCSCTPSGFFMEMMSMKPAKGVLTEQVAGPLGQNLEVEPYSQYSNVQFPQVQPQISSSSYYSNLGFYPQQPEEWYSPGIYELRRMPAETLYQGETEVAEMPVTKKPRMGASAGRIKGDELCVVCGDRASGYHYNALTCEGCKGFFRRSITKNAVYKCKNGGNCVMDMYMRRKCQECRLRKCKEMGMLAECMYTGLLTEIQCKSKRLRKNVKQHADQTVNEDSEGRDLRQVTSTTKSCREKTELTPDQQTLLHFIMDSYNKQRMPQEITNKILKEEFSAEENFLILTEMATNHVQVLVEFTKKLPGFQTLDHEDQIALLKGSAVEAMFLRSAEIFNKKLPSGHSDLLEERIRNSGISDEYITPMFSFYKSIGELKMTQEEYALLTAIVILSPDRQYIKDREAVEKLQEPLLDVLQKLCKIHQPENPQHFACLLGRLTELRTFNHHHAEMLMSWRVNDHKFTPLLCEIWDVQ
Experiment: AlphaScreen assay of FXR agonist activity in vitro: effect on binding between human farnesol receptor protein and its coactivator (SRC1-2)
Assay type: biochemical
Settings: hFXR 100 nM, peptide bSRC1-2 50 nM, 2 hr incubation at room temperature
Description: FXR agonist activity in vitro for the chemicals prepared in the above examples is measured.
AlphaScreen-based assays are performed with a hexahistidine detection kit manufactured by Perkins-Elmer, for measuring the effect of chemical compounds on the binding between human farnesol receptor protein and its coactivator (SRC1-2), the method is shown as follows:
1) Preparing a mixture comprising human farnesol receptor protein hFXR (100 nM, 15 μL/well), peptide bSRC1-2 (50 nM, 15 μL/well), 10× AlphaScreen buffer solution (15 μL/well and DI water (60 μL/well), and then transferring 105 μL/well of the mixture to a 96-well plate; 2) Diluting the chemicals prepared in the above examples by twice gradient 12×, with 15 μL/well; 3) Adding donor beads and acceptor beads, 30 μL/well in total; (attention: the beads are light-sensitive) 4) Incubating in dark at room temperature for 2 hr; 5) Transferring 40 μL/well of the mixture to a 384-well plate with 3 replicates, and then centrifuging at 1000 rpm for 1 min, to make liquid mixed well underneath the wells. (attention: photopathic operation); 6) In a dark room, reading the plate (by Homogeneous luminescent immunoassay system) to obtain EC50 with a GraphPad Prism5 software.

Compound	EC50 [nM]
O=C(O)c1ccc2nc(N3CCC4(CC3)CC(OCc3c(-c5c(Cl)cccc5Cl)noc3C3CC3)C4)sc2c1 [Example 2, 2-(2((5-cyclopropyl-3-(2,6-dichlorophenyl)isoxazol-4-yl)methoxy)-7-azaspiro[3.5]nonan-7-yl)benzo[d]thiazole-6-carboxylic Acid]	< 100
O=C(O)c1ccc2nc(N3CC4(CC(OCc5c(-c6c(Cl)cccc6Cl)noc5C5CC5)C4)C3)sc2c1 [Example 4, 2-(6((5-cyclopropyl-3-(2,6-dichlorophenyl)isoxazol-4-yl)methoxy)2-azaspiro[3.3]heptan-2-yl)benzo[d]thiazole-6-carboxylic Acid]	< 100
O=C(O)c1cccc(C(=O)N2CC3CCC(C2)C3OCc2c(-c3c(Cl)cccc3Cl)noc2C2CC2)c1 (stereo not drawn) [Example 5, 3-(8((5-cyclopropyl-3-(2,6-dichlorophenyl)isoxazol-4-yl)methoxy)3-azabicyclo[3.2.1]octan-3-carbonyl)benzoic Acid]	> 1000
O=C(O)c1ccc2nc(N3CC4CCC(C3)C4OCc3c(-c4c(Cl)cccc4Cl)noc3C3CC3)sc2c1 (stereo not drawn) [Example 6, 2-(8-((5-cyclopropyl-3-(2,6-dichlorophenyl)isoxazol-4-yl)methoxy)-3-azabicyclo[3.2.1]octan-3-yl)benzo[d]thiazole-6-carboxylic Acid]	100 to 1000
O=C(O)c1cccc(N2CC3(CC(OCc4c(-c5c(Cl)cccc5Cl)noc4C4CC4)C3)C2)c1 [Example 9, 3-(6-((5-cyclopropyl-3-(2,6-dichlorophenyl)isoxazol-4-yl)methoxy)-2-azaspiro[3.3]heptan-2-yl)benzoic Acid]	100 to 1000
O=C(O)c1cccc(N2CCC3(CC(OCc4c(-c5c(Cl)cccc5Cl)noc4C4CC4)C3)C2)c1 (stereo not drawn) [Example 10, 3-(2-((5-cyclopropyl-3-(2,6-dichlorophenyl)isoxazol-4-yl)methoxy)-6-azaspiro[3.4]octan-6-yl)benzoic Acid]	100 to 1000
O=C(O)c1ccc2nc(N3CC4CCCCC(C3)C4OCc3c(-c4c(Cl)cccc4Cl)noc3C3CC3)sc2c1 (stereo not drawn) [Example 11, 2-(10-((5-cyclopropyl-3-(2,6-dichlorophenyl)isoxazol-4-yl)methoxy)-8-azabicyclo[4.3.1]decan-8-yl)benzo[d]thiazole-6-carboxylic Acid]	< 100
COc1cc(C(=O)O)cc2sc(N3CCC4(CC(OCc5c(-c6c(Cl)cccc6Cl)noc5C5CC5)C4)C3)nc12 (stereo not drawn) [Example 12, 2-(2-((5-cyclopropyl-3-(2,6-dichlorophenyl)isoxazol-4-yl)methoxy)-6-azaspiro[3.4]octan-6-yl)-4-methoxybenzo[d]thiazole-6-carboxylic Acid]	100 to 1000
O=C(O)c1cc(F)c2nc(N3CCC4(CC(OCc5c(-c6c(Cl)cccc6Cl)noc5C5CC5)C4)C3)sc2c1 (stereo not drawn) [Example 13, 2-(2-((5-cyclopropyl-3-(2,6-dichlorophenyl)isoxazol-4-yl)methoxy)-6-azaspiro[3.4]octan-6-yl)-4-flurobenzo[d]thiazole-6-carboxylic Acid]	100 to 1000
C[C@@H]1CC2(CC(OCc3c(-c4c(Cl)cccc4Cl)noc3C3CC3)C2)CN1c1nc2ccc(C(=O)O)cc2s1 (stereo partly drawn) [Example 15, (R)-2-(2-((5-cyclopropyl-3-(2,6-dichlorophenyl)isoxazol-4-yl)methoxy)-7-methyl-6-azaspiro[3.4]octan-6-yl) benzo[d]thiazole-6-carboxylic Acid]	100 to 1000
C[C@@H]1CC2(CC(OCc3c(-c4c(Cl)cccc4Cl)noc3C3CC3)C2)CN1c1nc2c(F)cc(C(=O)O)cc2s1 (stereo partly drawn) [Example 17]	100 to 1000
COc1cc(C(=O)O)cc2sc(N3CC4(CC(OCc5c(-c6c(Cl)cccc6Cl)noc5C5CC5)C4)C[C@H]3C)nc12 (stereo partly drawn) [Example 18]	100 to 1000
O=C(O)c1cc(F)c2nc(N3CC4(CC(OCc5c(-c6c(Cl)cccc6Cl)noc5C5CC5)C4)C[C@H]3CF)sc2c1 (stereo partly drawn) [Example 19, (S)-2-(2-((5-cyclopropyl-3-(2,6-dichlorophenyl)isoxazol-4-yl)methoxy)-7-(fluromethyl)-6-azaspiro[3.4]octan-6-yl)-4-flurobenzo[d]thiazole-6-carboxylic Acid]	100 to 1000
O=C(O)c1ccc2nc(N3CCc4ccc(OCc5c(-c6c(Cl)cccc6Cl)noc5C5CC5)cc4C3)sc2c1 [Example 24, 2-(7-((5-cyclopropyl-3-(2,6-dichlorophenyl)isoxazol-4-yl)methoxy)-3,4-dihydroisoquinolin-2(1H)-yl) benzo[d]thiazole-6-carboxylic Acid]	100 to 1000
O=C(O)c1ccc2nc(N3CC4CC(OCc5c(-c6c(Cl)cccc6Cl)noc5C5CC5)CC4C3)sc2c1 (stereo not drawn) [Example 26, 2-(5-((5-cyclopropyl-3-(2,6-dichlorophenyl)isoxazol-4-yl)methoxy)hexahydrocyclopenta[c]pyrrol-2(1H)-yl) benzo[d]thiazole-6-carboxylic Acid]	< 100
O=C(O)c1ccc2nc(N3CC4CCCC(C3)C4OCc3c(-c4c(Cl)cccc4Cl)noc3C3CC3)sc2c1 (stereo not drawn) [Example 28, 2-(9-((5-cyclopropyl-3-(2,6-dichlorophenyl)isoxazol-4-yl)methoxy)-3-azazbicyclo[3.3.1]nonan-3-yl) benzo[d]thiazole-6-carboxylic Acid]	< 100

The remaining lines, values ahead:

EC50 [nM]	Compound
> 1000	2-(5-((5-cyclopropyl-3-(2,6-dichlorophenyl)isoxazol-4-yl)methoxy)hexahydrocyclopenta[c]pyrrol-2(1H)-yl) benzo[d]thiazole-6-carboxylic Acid [Example 27]
> 1000	O=C(O)c1cccc(C(=O)N2CCC3(CC2)CC(OCc2c(-c4c(Cl)cccc4Cl)noc2C2CC2)C3)c1 [Example 1]
> 1000	O=C(O)c1cccc(C(=O)N2CC3(CC(OCc4c(-c5c(Cl)cccc5Cl)noc4C4CC4)C3)C2)c1 [Example 3, 3-(6((5-cyclopropyl-3(2,6-dichlorophenyl)isoxazol-4-yl)methoxy)-2-azaspiro[3.3]heptan-2-carbonyl)benzoic Acid]
< 100	O=C(O)c1cccc(C(=O)N2CCC3(CC(OCc4c(-c5c(Cl)cccc5Cl)noc4C4CC4)C3)C2)c1 (stereo not drawn) [Example 7, 3-(2-((5-cyclopropyl-3-(2,6-dichlorophenyl)isoxazol-4-yl)methoxy)-6-azaspiro[3.4]octan-6-carbonyl)benzoic Acid]
< 100	O=C(O)c1ccc2nc(N3CCC4(CC(OCc5c(-c6c(Cl)cccc6Cl)noc5C5CC5)C4)C3)sc2c1 (stereo not drawn) [Example 8, 2-(2-((5-cyclopropyl-3-(2,6-dichlorophenyl)isoxazol-4-yl)methoxy)-6-azaspiro[3.4]octan-6-yl)benzo[d]thiazole-6-carboxylic Acid]
< 100	O=C(O)c1ccc2nc(N3CCC4(CC(OCc5c(-c6c(Cl)cccc6Cl)noc5C5CC5)C4)C3)oc2c1 (stereo not drawn) [Example 14, 2-(2-((5-cyclopropyl-3-(2,6-dichlorophenyl)isoxazol-4-yl)methoxy)-6-azaspiro[3.4]octan-6-yl) benzo[d]oxazole-6-carboxylic Acid]
100 to 1000	O=C(O)c1ccc2nc(N3CC4(CC(OCc5c(-c6c(Cl)cccc6Cl)noc5C5CC5)C4)C[C@H]3CF)sc2c1 (stereo partly drawn) [Example 16, (S)-2-(2-((5-5-cyclopropyl-3-(2,6-dichlorophenyl)isoxazol-4-yl)methoxy)-7-(fluromethyl)-6-azaspiro[3.4]octan-6-yl) benzo[d]thiazole-6-carboxylic Acid]
100 to 1000	O=C(O)c1ccc2nc(N3CC4(CC(OCc5c(-c6c(Cl)cccc6Cl)noc5C5CC5)C4)C[C@H]3CF)oc2c1 (stereo partly drawn) [Example 21, (S)-2-(2-((5-cyclopropyl-3-(2,6-dichlorophenyl)isoxazol-4-yl)methoxy)-7-(fluromethyl)-6-azaspiro[3.4]octan-6-yl) benzo[d]oxazole-6-carboxylic Acid]
< 100	O=C(O)c1ccc2nc(N3Cc4ccc(OCc5c(-c6c(Cl)cccc6Cl)noc5C5CC5)cc4C3)sc2c1 [Example 22, 2-(5-((5-cyclopropyl-3-(2,6-dichlorophenyl)isoxazol-4-yl)methoxy)isoindolin-2-yl) benzo[d]thiazole-6-carboxylic Acid]
< 100	O=C(O)c1ccc2nc(N3CCc4cc(OCc5c(-c6c(Cl)cccc6Cl)noc5C5CC5)ccc4C3)sc2c1 [Example 23, 2-(6-((5-cyclopropyl-3-(2,6-dichlorophenyl)isoxazol-4-yl)methoxy)-3,4-dihydroisoquinolin-2 (1H)-yl) benzo[d]thiazole-6-carboxylic Acid]
100 to 1000	O=C(O)c1ccc2nc(N3CC4CCC(OCc5c(-c6c(Cl)cccc6Cl)noc5C5CC5)CC4C3)sc2c1 (stereo not drawn) [Example 25, 2-(5-((5-cyclopropyl-3-(2,6-dichlorophenyl)isoxazol-4-yl)methoxy)hexahydro-1H-isoindol-2(3H)-yl) benzo[d]thiazole-6-carboxylic Acid]
